Data from patent US11040028B2, “Penicinotam derivative, preparation method and use thereof” (OCEAN UNIVERSITY OF CHINA, priority 2017, dated 2021).

Columns and labels:
Format in all cases: cell-based
[1] = system: human dermal fibroblasts CCC-ESF-1; assay: Anti-fibrosis activity test: inhibition of proliferation of human dermal fibroblasts CCC-ESF-1 (CCK-8); conditions: Fibroblast
In short: (§1)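 Cells were seeded at 2×10^4 cells/mL and allowed to adhere for 24 h at 37° C, 5% CO2, then exposed to graded compound concentrations in triplicate for 48 h. CCK-8 was added for 2 h, A450 was read, and IC50 was derived from inhibition rate = (1−Ai/Ao)×100%.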

[2] = system: human fibrosarcoma cells HT-1080; assay: Anti-fibrosis activity test: inhibition of proliferation of human fibrosarcoma cells HT-1080 (CCK-8); conditions: Homo sapiens, HT-1080, 48 h
In short: as §1

[3] = system: cardiac fibroblast RAT-iCell-C002; assay: Anti-fibrosis activity test: inhibition of proliferation of cardiac fibroblast RAT-iCell-C002 (CCK-8); conditions: Cardiac fibroblast, 48 h
In short: as §1

NF-κB = assay: Immunological activity test: inhibition of NF-κB activity; conditions: initial concentration of 30 μM; a/b isomers given as first/second symbol; read-out: IC50 (μM), inhibitory activity against NF-κB
In short: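 Single-point testing at 30 μM preceded IC50 determination.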

[4] = system: human lung fibroblasts HFL1; assay: Anti-fibrosis activity test: inhibition of proliferation of human lung fibroblasts HFL1 (CCK-8); conditions: Homo sapiens, HFL1, 48 h
In short: as §1

[5] = system: mouse macrophages (RAW264.7); assay: Lipopolysaccharide-induced NO secretion in macrophages (Griess); conditions: Mus musculus, RAW264.7, 24 h, RAW264.7, LPS 1 μg/ml, a/b isomers given as first/second symbol, read-out: IC50 (μM), inhibition of lipopolysaccharide-induced NO secretion in macrophages
In short: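 RAW264.7 cells in DMEM with 10% FBS were treated with test compounds at several concentrations, then stimulated with LPS (1 μg/ml) for 24 hours. Nitrite in the supernatant was measured by Griess reaction at 548 nm, and percent inhibition was calculated against blank-medium controls.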

BHK-21 cells = assay: Anti-fibrosis activity test: inhibition of BHK-21 cell proliferation (CCK-8); conditions: Mesocricetus auratus, BHK-21, 48 h
In short: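 Cells plated 2×10^4 cells/mL; 24 h attach; compound dilutions, triplicate, 48 h, 37° C/5% CO2; CCK-8 2 h; A450; IR = (1−Ai/Ao)×100%; IC50 by curve fit.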

[6] = system: human embryonic lung fibroblast IMR-90; assay: Anti-fibrosis activity test: inhibition of proliferation of human embryonic lung fibroblast IMR-90 (CCK-8)
In short: as §1

[7] = system: human hepatic stellate cells LX-2; assay: Anti-fibrosis activity test: inhibition of proliferation of human hepatic stellate cells LX-2 (CCK-8); conditions: Homo sapiens, 48 h
In short: as §1

[8] = human dermal fibroblasts CCC-ESF-1, CCK-8, 48 hours
[9] = human fibrosarcoma cells HT-1080, CCK-8, 48 hours
[10] = cardiac fibroblast RAT-iCell-C002, CCK-8, 48 hours
[11] = human lung fibroblasts HFL1, CCK-8, 48 hours
[12] = CCK-8, 48 hours after administration
[13] = human embryonic lung fibroblast IMR-90, CCK-8, 48 hours
[14] = human hepatic stellate cells LX-2, CCK-8, 48 hours
[15] = Homo sapiens, CCC-ESF-1 cells, 48 h, CCK-8
[16] = Homo sapiens, IMR-90 cells, 48 h, CCK-8

SMILES	IC50 [2, 9] [mM]	IC50 (NF-κB) [µM]	IC50 [5] [µM]	IC50 ([2]; HT-1080 cells, 48 h, CCK-8) [mM]	IC50 [1, 8] [mM]	IC50 [3, 10] [mM]	IC50 [4, 11] [mM]	IC50 (BHK-21 cells; [12]) [mM]	IC50 [6, 13] [mM]	IC50 [7, 14] [mM]	IC50 [1, 15] [mM]	IC50 ([3]; RAT-iCell-C002 cells, CCK-8) [mM]	IC50 ([4]; HFL1 cells, 48 h, CCK-8) [mM]	IC50 (BHK-21 cells; 48 h, CCK-8) [mM]	IC50 [6, 16] [mM]	IC50 ([7]; LX-2, 48 h, LX-2 cells, CCK-8) [mM]
C=CCn1c2c(c(=O)c3ccccc31)C(=O)n1cccc1-2 [Compound 6a, 4-Allyl-9H-pyrrolizino[1,2-b]quinoline-9,10(4H)-dione]	< 0.05	1 to 10	1 to 10		0.05 to 5	0.05 to 5	0.05 to 5	0.05 to 5	0.05 to 5	0.05 to 5						
N#Cc1cccc2nc3c(c(OCc4ccc(F)cc4)c12)C(=O)n1cccc1-3 [Compound 462b, 9-((4-fluorobenzyl)oxy)-10-oxo-10H-pyrrolizino[1,2-b]quinoline-8-carbonitrile]	0.05 to 5	0.1 to 1	1 to 10		0.05 to 5	0.05 to 5	0.05 to 5	0.05 to 5	0.05 to 5	0.05 to 5						
O=C1c2c([nH]c3c(F)cccc3c2=O)-c2cccn21 [Compound 444a, 5-Fluoro-9H-pyrrolizino[1,2-b]quinoline-9,10(4H)-dione]	0.05 to 5	1 to 10	0.1 to 1		0.05 to 5	0.05 to 5	0.05 to 5	0.05 to 5	0.05 to 5	0.05 to 5						
O=C1c2c([nH]c3cc(OC(F)(F)F)ccc3c2=O)-c2cccn21 [Compound 548a, 6-(Trifluoromethoxy)-9H-pyrrolizino[1,2-b]quinoline-9,10(4H)-dione]	0.05 to 5	0.1 to 1	10 to 50		0.05 to 5	0.05 to 5	0.05 to 5	0.05 to 5	0.05 to 5	< 0.05						
O=C(O)COc1c2c(nc3ccc(C(F)(F)F)cc13)-c1cccn1C2=O [Compound 279b, 2-((10-Oxo-7-(trifluoromethyl)-10H-pyrrolizino[1,2-b]quinolin-9-yl)oxy)acetic acid]	0.05 to 5	1 to 10	0.1 to 1		0.05 to 5	0.05 to 5	0.05 to 5	0.05 to 5	0.05 to 5	0.05 to 5						
O=C1c2c(nc3ccccc3c2OCc2cccc(Cl)c2F)-c2cccn21 [Compound 582b, 9-((3-chloro-2-fluorobenzyl)oxy)-10H-pyrrolizino[1,2-b]quinolin-10-one]	0.05 to 5	1 to 10	1 to 10		0.05 to 5	0.05 to 5	0.05 to 5	0.05 to 5	0.05 to 5	0.05 to 5						
N#Cc1cccc2c(O)c3c(nc12)-c1cccn1C3=O [Compound 447b, 9-hydroxy-10-oxo-10H-pyrrolizino[1,2-b]quinoline-5-carbonitrile]	0.05 to 5	0.1 to 1	1 to 10		0.05 to 5	0.05 to 5	0.05 to 5	0.05 to 5	0.05 to 5	0.05 to 5						
N#Cc1ccc2[nH]c3c(c(=O)c2c1)C(=O)n1cccc1-3 [Compound 222a, 9,10-Dioxo-4,10-dihydro-9H-pyrrolizino[1,2-b]quinoline-7-carbonitrile]	0.05 to 5	1 to 10	1 to 10		0.05 to 5	0.05 to 5	0.05 to 5	0.05 to 5	0.05 to 5	0.05 to 5						
COc1cccc2c(=O)c3c([nH]c12)-c1cccn1C3=O [Compound 446a, 5-Methoxy-9H-pyrrolizino[1,2-b]quinoline-9,10(4H)-dione]	0.05 to 5	0.1 to 1	1 to 10		0.05 to 5	0.05 to 5	0.05 to 5	0.05 to 5	0.05 to 5	0.05 to 5						
O=C1c2c(nc3c(F)cccc3c2OCc2cccc(F)c2)-c2cccn21 [Compound 458b, 5-fluoro-9-((3-fluorobenzyl)oxy)-10H-pyrrolizino[1,2-b]quinolin-10-one]	0.05 to 5	1 to 10	1 to 10		0.05 to 5	0.05 to 5	0.05 to 5	0.05 to 5	0.05 to 5	0.05 to 5						
O=C1c2c(nc3ccccc3c2OCc2cc(F)cc(F)c2)-c2cccn21 [Compound 579b, 9-((3,5-difluorobenzyl)oxy)-10H-pyrrolizino[1,2-b]quinolin-10-one]	0.05 to 5	0.1 to 1	1 to 10		0.05 to 5	0.05 to 5	0.05 to 5	0.05 to 5	0.05 to 5	0.05 to 5						
O=C1c2c(nc3ccccc3c2OCc2ccccc2I)-c2cccn21 [Compound 576b, 9-((2-iodobenzyl)oxy)-10H-pyrrolizino[1,2-b]quinolin-10-one]	0.05 to 5	1 to 10	1 to 10		0.05 to 5	0.05 to 5	0.05 to 5	0.05 to 5	0.05 to 5	0.05 to 5						
O=C(O)Cn1c2c(c(=O)c3cc(C(F)(F)F)ccc31)C(=O)n1cccc1-2 [Compound 279a, 2-(9,10-dioxo-7-(trifluoromethyl)-9H-pyrrolizino[1,2-b]quinolin-4(10H)-yl)acetic acid]	0.05 to 5	1 to 10	1 to 10		0.05 to 5	0.05 to 5	0.05 to 5	0.05 to 5	0.05 to 5	0.05 to 5						

Second part, led by results:

IC50 [2, 9] [mM]	IC50 (NF-κB) [µM]	IC50 [5] [µM]	IC50 ([2]; HT-1080 cells, 48 h, CCK-8) [mM]	SMILES	IC50 [1, 8] [mM]	IC50 [3, 10] [mM]	IC50 [4, 11] [mM]	IC50 (BHK-21 cells; [12]) [mM]	IC50 [6, 13] [mM]	IC50 [7, 14] [mM]	IC50 [1, 15] [mM]	IC50 ([3]; RAT-iCell-C002 cells, CCK-8) [mM]	IC50 ([4]; HFL1 cells, 48 h, CCK-8) [mM]	IC50 (BHK-21 cells; 48 h, CCK-8) [mM]	IC50 [6, 16] [mM]	IC50 ([7]; LX-2, 48 h, LX-2 cells, CCK-8) [mM]
0.05 to 5	0.1 to 1	1 to 10		O=C1c2c(n(CCN3CCOCC3)c3ccccc3c2=O)-c2cccn21 [Compound 662a, 4-(2-Morpholinoethyl)-9H-pyrrolizino[1,2-b]quinoline-9,10(4H)-dione]	0.05 to 5	0.05 to 5	0.05 to 5	0.05 to 5	0.05 to 5	0.05 to 5						
	0.1 to 1	1 to 10	0.05 to 5	Cc1cccc2nc3c(c(O)c12)-c1cccn1C3=O [Compound 776b, 11-hydroxy-10-methyl-5H-pyrrolizino[2,1-b]quinolin-5-one]							0.05 to 5	0.05 to 5	0.05 to 5	0.05 to 5	0.05 to 5	0.05 to 5
	1 to 10	1 to 10	0.05 to 5	CCCOCCn1c2c(c(=O)c3ccccc31)C(=O)n1cccc1-2 [Compound 671a, 4-(2-Propoxyethyl)-9H-pyrrolizino[1,2-b]quinoline-9,10(4H)-dione]							0.05 to 5	0.05 to 5	0.05 to 5	0.05 to 5	0.05 to 5	0.05 to 5
0.05 to 5	0.1 to 1	1 to 10		CCOC(=O)/C=C/Cn1c2c(c(=O)c3ccccc31)C(=O)n1cccc1-2 [Compound 661a, Ethyl (E)-4-(9,10-dioxo-9H-pyrrolizino[1,2-b]quinolin-4(10H)-yl)but-2-enoate]	0.05 to 5	0.05 to 5	0.05 to 5	< 0.05	0.05 to 5	0.05 to 5						
0.05 to 5	1 to 10	0.1 to 1		O=C1c2c(n(CCCCN3CCOCC3)c3ccccc3c2=O)-c2cccn21 [Compound 664a, 4-(4-Morpholinobutyl)-9H-pyrrolizino[1,2-b]quinoline-9,10(4H)-dione]	0.05 to 5	0.05 to 5	0.05 to 5	0.05 to 5	0.05 to 5	0.05 to 5						
< 0.05	0.1 to 1	1 to 10		O=C1c2c(n(Cc3ccc(Br)cc3F)c3ccccc3c2=O)-c2cccn21 [Compound 606a, 4-(4-Bromo-2-fluorobenzyl)-9H-pyrrolizino[1,2-b]quinoline-9,10(4H)-dione]	0.05 to 5	0.05 to 5	0.05 to 5	< 0.05	0.05 to 5	0.05 to 5						
